The values below come from patent publication US20170349949A1, “METHODS OF SELECTING SUBJECTS FOR TREATMENT WITH METABOLIC MODULATORS” (Partikula LLC, priority 2016, published 2017).

The subject of one experiment is pyruvate dehydrogenase. The following applies: highly purified pyruvate dehydrogenase, cited from earlier work.
A further experiment concerns A549 cells. Put plainly: Extracellular lactate after PDK inhibitor, with or without UK5099 pre-treatment. Format: cell-based. The following applies: 16 hrs UK5099 pre-treatment, then DCA 50 mM or KULA2 500 μM for 6 hrs. On the procedure: A549 cells were pre-treated for 16 hrs with the MPC inhibitor UK5099 and then subsequently treated with the test articles for 6 hrs; extracellular lactate was then measured. Dichloroacetate (DCA) and KULA2, a dichloroacetate (DCA) analogue targeted to the mitochondria with a lipophilic triphenylphosphonium (TPP) cation moiety, were used ((Pathak R K et al., ACS Chem. Biol., 9 (5) 1178-1187 (2014), (Pathak R K et al., ACS Chem. Biol., 9 (5) 1178-1187 (2014), and WO/2015/002996). DCA is dosed at 50 mM and KULA2 is dosed at 500 μM.

The test system of a further experiment is HCT116 tumors. Put plainly: KULA2 in mice harboring HCT116 tumors (MPC null). The following applies: comparator results named beside KULA2 in HCT116; dose and source not given. Format: in vivo. The procedure:
CT26 is the MPC+ group. MPC levels were verified via western blotting or otherwise known (see, e.g., Schell, et al., Molecular Cell, 56:400-413 (2014)).
In both models HCT116 and CT26 the mice (between 8-10 per arm) were dosed with KULA2 via i.p. injection and vehicle, HCT116 tumors at a dose of 20 mg/kg, and CT26 tumors at a dose of 18 mg/kg. Dosing schedule in both cases was 5 days on, 2 days off for the duration of the study.
Experiments were designed to determine if MPC expression correlates with the efficacy of PDK inhibitor. A PDK inhibitor, KULA2, was administered to mice harboring HCT116 tumors (at a dose of 20 mg/kg) or CT26 tumors (at a dose of 18 mg/kg).

For `Cc1ncc(C[n+]2csc(CCO[P@](=O)(O)OP(=O)(O)O)c2C)c(N)n1` [TPP, thiamine pyrophosphate], the Km with pyruvate dehydrogenase (read-out: Km of cofactor) is 0.11 µM. Take `N#C/C(=C\c1cn(-c2ccccc2)c2ccccc12)C(=O)O` [UK5099]: the “effect of MPC inhibition on lactate reduction by PDK inhibitors” value with A549 cells is “lowers the lactate reduction normally seen with PDK inhibitors”.

For the molecule `N.N.[Cl][Pt][Cl]` [cisplatin], in the experiment with HCT116 tumors, the “tumor inhibition (comparators)” value was determined as 22%. Regarding `Cc1ncc(C[n+]2csc(CCO)c2C)c(=O)[nH]1` [oxythiamine, Oxythiamine], the Ki on pyruvate dehydrogenase (oxythiamine diphosphate ester, read-out: KI against the normal cofactor TPP) was 0.07 µM. As to `CNC(=O)c1cc(Oc2ccc(NC(=O)Nc3ccc(Cl)c(C(F)(F)F)c3)cc2)ccn1` [sorafenib], the “tumor inhibition (comparators)” value in the experiment with HCT116 tumors is listed as 17%. Same read-out and setting: next, “VEGF-TRAP: comparator named for tumor inhibition”: 22%.
